# Key:
# [1] = test system: postmenopausal women; experiment: Randomized, double blind, placebo controlled study of oral lasofoxifene on sleep (Sleep Problems subscale of Women's Health Questionnaire); assay type: in vivo, human; settings: 3 months assessment
# Experimental: The Effects of Oral Administration of (−)-cis-6-phenyl-5-[4-(2-pyrrolidin-1-yl-ethoxy)-phenyl]-5,6,7,8-tetrahydro-naphthalene-2-ol, D-tartrate salt (lasofoxifene) on Sleep: A Randomized, Double Blind, Placebo Controlled Study
# (§1) Subjects: A double blind, randomized, placebo controlled trial of approximately three hundred and seventy five women between the ages of 50 and 74 years of age inclusive, and 1-20 years postmenopausal was carried out. The subjects selected for the study were ambulatory females between the ages of 50 and 74 years of age (inclusive) who gave written informed consent for participation in the study. […] The subject's Screening/Baseline mean L1-L4 lumbar bone mineral density (BMD) of the spine must be less than +2.0 standard deviations and greater than −2.5 standard deviations of age-and sex-matched bone mineral density (Z-score) as determined by standards of the manufacturer of the Dual X-ray Absorptiometer (DXA) used in the determination of that BMD. […] The subjects' endometrial thickness were typically <5 mm as determined by transvaginal ultrasound (TVU) and subjects outside of this criteria were asked to undergo additional baseline evaluation following initial randomization. […]
# Assessment Method: Patient self-report recorded on Sleep Problems subscale of standardized questionnaire, Women's Health Questionnaire (WHQ; Hunter, M. 1992. Psychology and Health, 7: 45-54).
# [2] = test system: postmenopausal women; experiment: Randomized, double blind, placebo controlled study of oral lasofoxifene on joint pain (visual analog scale pain score); assay type: in vivo, human; settings: 3 months assessment, self-reported VAS 100 mm scale (0 mm=no pain, 100 mm=worst pain)
# Experimental: as §1, with “The Effects of Oral Administration of (−)-cis-6-phenyl-5-[4-(2-pyrrolidin-1-yl-ethoxy)-phenyl]-5,6,7,8-tetrahydro-naphthalene-2-ol, D-tartrate salt (Iasofoxifene) on Joint Pain: A Randomized, Double Blind, Placebo Controlled Study Subjects:” for “Subjects:”
smiles,measurement,setting,value
"O=C(O)C(O)C(O)C(=O)O.Oc1ccc2c(c1)CC[C@H](c1ccccc1)[C@@H]2c1ccc(OCCN2CCCC2)cc1 [Lasofoxifene, (−)-cis-6-phenyl-5-[4-(2-pyrrolidin-1-yl-ethoxy)-phenyl]-5,6,7,8-tetrahydro-naphthalene-2-ol, D-tartrate salt]","Improvement in sleep (less sleep disturbance) vs. placebo, in words",[1]; lasofoxifene 0.4 mg treatment group vs. placebo,statistically significant improvement in sleep
same,Mean Change from Baseline (WHQ Sleep Problems subscale),"[1]; lasofoxifene 0.4 mg/day oral, patient self-report",−0.09
same,Joint Pain Changes Resulting From Treatment (Mean Change from Baseline),[2]; lasofoxifene 0.25 mg/day oral,−8.16
same,Joint Pain Changes Resulting From Treatment (Mean Change from Baseline),[2]; lasofoxifene 1.0 mg/day oral,4.52

# From patent US20040152713A1, “Methods for treating joint pain or improving sleep using an estrogen agonist/antagonist” (Pfizer Inc., priority 2003, published 2004)
